Assays:
Type in all cases: physicochemical
[1] = Thermodynamic aqueous solubility by HPLC (filtration method); conditions: for pH: pH of the solubility suspension; for pH (with aqueous solubility): pH of suspension
Experimental: The aqueous thermodynamic solubility of selected salt forms was measured using the filtration method as described in Example 10.
The suspension was equilibrated at 25° C. for 24 hours then the pH was measured. The suspension was then filtered through a glass fiber C filter into a 96 well plate. The filtrate was then diluted by a factor of 101. Quantitation was by HPLC with reference to a standard solution of approximately 0.1 mg/mL in DMSO. Different volumes of the standard, diluted and undiluted sample solutions were injected. The solubility was calculated using the peak areas determined by integration of the peak found at the same retention time as the principal peak in the standard injection.

[2] = Gravimetric Vapour Sorption (GVS); conditions: for Hygroscopicity: moisture absorbed by weight: between 0 and 90% relative humidity; for physical stability after moisture exposure (XRPD pre- and post-GVS): exposed up to 90% RH at 25° C.
Experimental: Sorption isotherms were obtained using a SMS HT-DVS moisture sorption analyser by Surface Measurement Systems Limited, Middlesex, UK, controlled by SMS Analysis Suite software. The sample temperature was maintained at 25° C. by the instrument controls. The humidity was controlled by mixing streams of dry and wet nitrogen, with a total flow rate of 400 mL/min. The relative humidity was measured by a calibrated optical dew point transmitter (dynamic range of 0.5-100% RH), located near the sample. The weight change, (mass relaxation) of the sample as a function of % RH was constantly monitored by the microbalance (accuracy±0.005 mg).
Typically 5-20 mg of sample was placed in a tared mesh stainless steel liner within a stainless steel pan under ambient conditions. The sample was loaded and unloaded at 40% RH and 25° C. (typical room conditions).
A moisture sorption isotherm was performed as outlined in Table 13 (2 scans giving 1 complete cycle). The standard isotherm was performed at 25° C. at 10% RH intervals over a 0.5-90% RH range.
The sample was recovered after completion of the isotherm and re-analysed by XRPD.

[3] = Stability on storage at 40° C./75% RH (XRPD, HPLC purity); conditions: for stability with respect to solid form and chemical purity: 40° C./75% RH (elevated humidity and temperature); for crystallinity upon storage (XRPD): 40° C./75% RH, no change in solid form; for Purity post 40° C./75% RH: HPLC purity after seventeen days at 40° C./75% RH; for Purity as isolated: HPLC purity pre 40° C./75% RH; for drop in chemical purity: upon storage at 40° C./75% RH
Description: […] No significant thermal events were seen before degradation began for both the phosphate salt and the 1-hydroxy-2-naphthoate salts.

[4] = Thermodynamic aqueous solubility by HPLC (ultracentrifugation method)
Experimental: The physical chemical properties of Forms A and B were determined according to the procedures below and the data are summarized in Table 12.
The mixture was allowed to equilibrate for at least 48 hours at 37° C. under mild agitation. At each 24-48 hour interval, an aliquot was removed and the solution was separated from the solid via ultracentrifugation at >60,000 rpm for 20 min and then analyzed by HPLC for the concentration of the compound in the supernatant. Upon equilibration (concentration plateau is reached), the concentration was reported as solubility. This method is the preferred method in determining solubility as it attains the equilibrium and is measurement of the thermodynamic solubility.

[5] = Log P and Log D determination (potentiometric titration, octanol:ISA water); conditions: octanol/ionic-strength adjusted (ISA) water
Description: Data were collected by potentiometric titration on a Sirius GlpKa instrument using three ratios of octanol:ionic-strength adjusted (ISA) water to generate Log P, Log Pion, and Log D values. The data were refined using Refinement Pro software v1.0. Prediction of Log P values was made using ACD v9 and Syracuse KOWWIN™ v1.67 software by Syracuse Research Corp., Syracuse, N.Y., USA.

[6] = pKa determination (Sirius GlpKa); conditions: 25° C.
Experimental: Data were collected on a Sirius GlpKa instrument by Sirius Analytical Ltd., UK with a D-PAS attachment. Measurements were made at 25° C. in aqueous solution by UV and in methanol water mixtures by potentiometry. The titration media was ionic-strength adjusted (ISA) with 0.15 M KCl (aq). The values found in the methanol water mixtures were corrected to 0% co-solvent via a Yasuda-Shedlovsky extrapolation. The data were refined using Refinement Pro software v1.0. Prediction of pKa values was made using ACD pKa prediction software v9.

[7] = Table 8, filtration method, water, 25° C., 24 hours
[8] = listed as 1-Hydroxy-2-naphthoate 2-5

Row | Compound | Aqueous solubility [1, 7] | pH ([1]; Table 8) | hygroscopicity (GVS) [2] | stability with respect to solid form and chemical purity [3] | crystallinity upon storage (XRPD) [3] | pH of saturated solution [4] | Aqueous Solubility (Ultracentrifugation Method) ([4]; in simulated gastric fluid) | Aqueous Solubility (Ultracentrifugation Method) ([4]; in simulated intestinal fluid) | Aqueous Solubility (Ultracentrifugation Method) ([4]; in water) | Hygroscopicity: moisture absorbed by weight [2] | physical stability after moisture exposure (XRPD pre- and post-GVS) [2] | other results
1 | O=C(NCc1cn(-c2ccc(-n3ccccc3=O)cc2)cn1)c1ccc(Cl)s1 [Phosphate Form 2] | 4100 µg/mL | 2.0 | Neither salts showed hygroscopicity | stable |  |  |  |  |  |  |  | pH (with aqueous solubility) ([1]; salts formed under reflux conditions, listed as Phosphoric acid MeCN): pH = 2.00; Aqueous solubility ([1]; salts formed under reflux conditions, water, listed as Phosphoric acid MeCN): 4100 µg/mL
2 | O=C(NCc1cn(-c2ccc(-n3ccccc3=O)cc2)cn1)c1ccc(Cl)s1 [Phosphate Form 3] | 6900 µg/mL | 2.2 |  | stable | loss of crystallinity |  |  |  |  |  |  | pH (with aqueous solubility) ([1]; salts from 100-mg maturation experiments, listed as 2-4): pH = 2.18; Aqueous solubility ([1]; salts from 100-mg maturation experiments, water, listed as 2-4): 6900 µg/mL; Purity post 40° C./75% RH ([3]; listed as Phosphate 2-4): 97.3%; Purity as isolated ([3]; listed as Phosphate 2-4): 98.0%; drop in chemical purity [3]: 0.7%
3 | O=C(NCc1cn(-c2ccc(-n3ccccc3=O)cc2)cn1)c1ccc(Cl)s1 [Mesylate Form A] | 5100 µg/mL | 1.8 |  |  |  | 3.3 | 1.3 mg/mL in simulated gastric | 0.02 mg/mL in simulated | 2.0 mg/mL in water | Absorbs approximately 2.5% | good physical stability | solubility at 24 h ([1]; water, 25 °C, pH 1.8, water, thermodynamic from solid, at pH 1.8): 5100 µg/mL; GVS uptake ([2]; at 90% RH): 2.8 wt %; hysteresis in GVS ([2]; listed as mesylate salt): no hysteresis evident; logP [5]: 2.25; logD ([5]; pH 7.4): 2.85; physical stability ([3]; 6 months of storage at 40° C./75% RH): physically stable; pKa [6]: 4.46
4 | O=C(NCc1cn(-c2ccc(-n3ccccc3=O)cc2)cn1)c1ccc(Cl)s1 [1-Hydroxy-2-naphthoate Form 1] | 50 µg/mL | 6.0 | Neither salts showed hygroscopicity | stable | loss of crystallinity |  |  |  |  |  |  | pH (with aqueous solubility) ([1]; salts formed under reflux conditions, listed as 1-hydroxy-2-napthoic acid MeCN): pH = 5.99; Aqueous solubility ([1]; salts formed under reflux conditions, water, listed as 1-hydroxy-2-napthoic acid MeCN): 44 µg/mL; pH (with aqueous solubility) ([1]; salts from 100-mg maturation experiments, listed as 2-5): pH = 6.50; Aqueous solubility ([1]; salts from 100-mg maturation experiments, water, listed as 2-5): 68 µg/mL; physical stability after moisture exposure (XRPD pre- and post-GVS) ([2]; listed as 1-hydroxy-2-naphthoate salt of Compound I): substantially stable; hysteresis in GVS ([2]; listed as 1-hydroxy-2-naphthoate salt Form 1): showed any hysteresis; Purity post 40° C./75% RH [3, 8]: 97.7%; Purity as isolated [3, 8]: 98.2%; drop in chemical purity ([3]; listed as 1-hydroxy-2-naphthoate salt): 0.5%
5 | O=C(NCc1cn(-c2ccc(-n3ccccc3=O)cc2)cn1)c1ccc(Cl)s1 [Mesylate Form B] |  |  |  |  |  | 2.7 | 12 mg/mL in simulated gastric | 0.06 mg/mL in simulated | 8.5 mg/mL in water | Absorbs approximately 2.5% | good physical stability | 

Reference: US8530501B2, “Salts and crystalline forms of a factor Xa inhibitor” (Millennium Pharmaceuticals, Inc., priority 2009, dated 2013)
